Tests used:
intragastric pH = assay: Clinical study 1, Cohort 2: 24-hour intragastric pH measurement on repeated co-administration; format: in vivo, human; settings: with amoxicillin/clarithromycin
Description: To identify an effect of eradicating Helicobacter pylori in the present invention, a clinical study was designed in accordance with a randomized, open-label, active-controlled, parallel and multiple-dose design. A total of 221 patients were subjected to screening for this study. Out of them, 36 patients were registered thereto and the completed clinical results were obtained from 34 patients.
Particularly, the 36 patients above were divided into three patient groups (T1, T2 and R) and the clinical study was performed accordingly. […]
The T1 group was repeatedly given 50 mg of CJ-12420 and 1000 mg of amoxicillin/500 mg of clarithromycin twice a day for seven days; the T2 group was repeatedly given 100 mg of CJ-12420 and 1000 mg of amoxicillin/500 mg of clarithromycin twice a day for seven days; and the R group was repeatedly given 40 mg of pantoprazole and 1000 mg of amoxicillin/500 mg of clarithromycin twice a day for seven days. An intragastric pH was measured from all the subjects on Day 1 for 24 hours, and the intragastric pH was also measured for 24 hours on Day 1 and Day 7 of repeated administration. Also, a negative conversion rate was calculated upon a follow-up visit paid by subjects who were identified to be H. pylori positive on the UBT test during screening, and stability evaluation was performed according to a predetermined schedule. […]

[1] = Clinical study 1, Cohort 1: pharmacokinetic interaction of tegoprazan and amoxicillin/clarithromycin, multiple dose; format: in vivo, human
Experimental: To evaluate pharmacokinetic interaction of multiple-dose administration of single and combination of tegoprazan and amoxicillin/clarithromycin, a clinical study was designed in accordance with a randomized, open-label, and multiple-dose design.
A total of 24 subjects who had been determined eligible to participate in the study were randomly assigned in a 1:1 ratio to each one of the two groups. Each randomly-assigned group was administered with investigational medical products as arranged during each intervention period and underwent a clinical study as designed. In consideration of the half-life of each product, a 14-day wash-out period was given between the intervention periods.
A total of 24 subjects were divided into group 1 and group 2. During the first intervention period, subjects of group 1 (12 person) were repeatedly administered with 100 mg of tegoprazan twice a day for four days and administered once a day on the fifth day on which a pharmacokinetic clinical study was conducted. During the second intervention period after a 14-day wash-out period, they were repeatedly administered with 1000 mg of amoxicillin and 500 mg of clarithromycin twice a day for four days and administered once a day on the fifth day. During the third intervention period after a 14-day wash-out period, they were repeatedly administered with 100 mg of tegoprazan, 1000 mg of amoxicillin, and 500 mg of clarithromycin twice a day for six days and administered once a day on the seventh day. Following the last dose of each intervention period, pharmacokinetic blood samples were collected for 17 times over 72 hours in the first period, 14 times over 48 hours in the second period, and 19 times over 120 hours in the third period.
Drugs were administered to subjects of group 2 (12 person) in the reverse order to the way the study was conducted on group 1 in the first and second intervention periods and in the same order in the third intervention period. Pharmacokinetic blood samples were collected in the same manner as group 1.
The average plasma concentrations of tegoprazan, clarithromycin, and amoxicillin were measured and time-based plasma concentration and time-based drug concentration patterns were observed when tegoprazan was repeatedly administered alone, amoxicillin/clarithromycin were repeatedly administered and tegoprazan, amoxicillin, and clarithromycin were repeatedly administered in combination.
Pharmacokinetics of tegoprazan, amoxicillin, and clarithromycin were evaluated. Descriptive statistics of pharmacokinetic evaluation parameters were presented. Point estimates for geometric mean ratio between each group and 90% confidence interval were calculated from the log-converted primary pharmacokinetic evaluation parameters by using a linear mixed effect model.

[2] = tegoprazan 100 mg twice a day, combination with amoxicillin 1000 mg/clarithromycin 500 mg versus alone
[3] = clarithromycin 500 mg with amoxicillin 1000 mg twice a day, with versus without tegoprazan 100 mg

SMILES	time to increase pH to 6 or more right after the administration (intragastric pH)	increase of AUC of tegoprazan when administered in combination with amoxicillin/clarithromycin [1, 2] [times]	increase of Cmax of tegoprazan when administered in combination with amoxicillin/clarithromycin [1, 2] [times]	AUC of clarithromycin when administered in combination with tegoprazan [1, 3]	Cmax of clarithromycin when administered in combination with tegoprazan [1, 3]
Cc1nc2c(OC3CCOc4cc(F)cc(F)c43)cc(C(=O)N(C)C)cc2[nH]1 (centres unmarked) [Tegoprazan, 4-[(5,7-difluoro-3,4-dihydro-2H-chromene-4-yl)oxy]-N,N,2-trimethyl-1H-benzimidazole-6-carboxamide]	two	2.70	2.24	–	–
CC[C@H]1OC(=O)[C@H](C)[C@@H](O[C@H]2C[C@@](C)(OC)[C@@H](O)[C@H](C)O2)[C@H](C)[C@@H](O[C@@H]2O[C@H](C)C[C@H](N(C)C)[C@H]2O)[C@](C)(OC)C[C@@H](C)C(=O)[C@H](C)[C@@H](O)[C@]1(C)O [clarithromycin, (3R,4S,5S,6R,7R,9R,11R,12R,13S,14R)-6-[(2S,3R,4S,6R)-4-(dimethylamino)-3-hydroxy-6-methyloxane-2-yl]oxy-14-ethyl-12,13-dihydroxy-4-[(2R,4R,5S,6S)-5-hydroxy-4-methoxy-4,6-dimethyloxane-2-yl]oxy-7-methoxy-3,5,7,9,11,13-hexamethyl-oxacyclotetradecane-2,10-dione, reference compound]	–	–	–	showed a tendency to increase	showed a tendency to increase

— patent US20250241897A1, “COMPOSITION FOR ERADICATING HELICOBACTER PYLORI” (HK INNO.N CORPORATION, priority 2018, published 2025)
